In EP4548971A1, “1,4-BENZOTHIAZEPINES AND RELATED COMPOUNDS WITH CYCLOPROPANOL GROUPS AS MULTI-TARGETED DRUGS” (Georg-August-Universität Göttingen Stiftung Öffentlichen …, priority 2023, dated 2025):
Entries after “also recorded” stand apart in the source; their conditions may differ.

Assays:
[1] = Membrane permeability, PermeaPad plate (cell-free transport model); format: in vitro ADME; settings: for Pe: permeability rate, room temperature, 24 hours
Experimental: Membrane permeability was assessed using PermeaPad® Plate according to the manufacturing procedure (innoME GmbH, Espelkamp, Germany). Briefly, 200 µl water was added into acceptor plate. 200 µl of 100 - 500 µM test compound in water was added directly to the well membranes of the donor plate. The donor plate contains a biomimetic membrane for simulating passive mass transfer through different barriers in the body. Then the donor plate was placed into the acceptor plate wells and incubated at room temperature for 24 hours in dark. To determine peak absorbance of test compounds, absorbance spectra of acceptor solutions and initial solutions for each test compound were read out. The Permeability Rate (Pe) was calculated using the formula: Pe = C × −ln(1−(ODA)/(ODE)) cm/s, [formula]
where ODA is the absorbance of acceptor solution, ODE is the absorbance of the standard solution; if the compound is able to permeabilize the membrane and fully reach equilibrium, 250 µM will be the final concentration of solution in the donor and acceptor wells. The coefficient C was calculated using the formula: C = (VD × VA)/((VD+VA) × Area × time), [formula] where VA - acceptor volume (cm^3), VD - donor volume (cm^3), membrane area 0.24 cm^2, time is 86,400 s.
The membrane permeability of the derivatives was determined using cell-free transport models (PermeaPad®, innoME GmbH), and permeability rates (Pe), which are a measure of how fast a compound can cross a membrane, were established (Table 1).

SERCA2a = biological target: T1, SERCA2a (Mus musculus, UniProt O55143); assay: Caffeine-induced Ca2+ release assay on HL-1 cells; format: cell-based; set-up: key to SERCA2a HL-1 effect class: +++: a strong effect, comparable to or greater than that of a known compounds at a given concentration (25 µM in RyR2 R-CEPIA1er assay, 10 µM in caffeine assay and on microsomal membrane vesicles); ++: moderate effect; +: observable effect; -: no effect; settings: for SERCA2a HL-1 effect class: 10 µM in caffeine assay; for effect in caffeine-induced Ca^2+ release assay, in words: HL-1 cells incubated 2 h with compound; for effect in caffeine-induced Ca^2+ release assay, in words / EC50: 10 mM caffeine; for EC50: caffeine-induced Ca2+ release, range after the semicolon is not explained
T1 construct: host or cells: HL-1 cardiac cells
T1 sequence (O55143 1-998 isoform O55143-2): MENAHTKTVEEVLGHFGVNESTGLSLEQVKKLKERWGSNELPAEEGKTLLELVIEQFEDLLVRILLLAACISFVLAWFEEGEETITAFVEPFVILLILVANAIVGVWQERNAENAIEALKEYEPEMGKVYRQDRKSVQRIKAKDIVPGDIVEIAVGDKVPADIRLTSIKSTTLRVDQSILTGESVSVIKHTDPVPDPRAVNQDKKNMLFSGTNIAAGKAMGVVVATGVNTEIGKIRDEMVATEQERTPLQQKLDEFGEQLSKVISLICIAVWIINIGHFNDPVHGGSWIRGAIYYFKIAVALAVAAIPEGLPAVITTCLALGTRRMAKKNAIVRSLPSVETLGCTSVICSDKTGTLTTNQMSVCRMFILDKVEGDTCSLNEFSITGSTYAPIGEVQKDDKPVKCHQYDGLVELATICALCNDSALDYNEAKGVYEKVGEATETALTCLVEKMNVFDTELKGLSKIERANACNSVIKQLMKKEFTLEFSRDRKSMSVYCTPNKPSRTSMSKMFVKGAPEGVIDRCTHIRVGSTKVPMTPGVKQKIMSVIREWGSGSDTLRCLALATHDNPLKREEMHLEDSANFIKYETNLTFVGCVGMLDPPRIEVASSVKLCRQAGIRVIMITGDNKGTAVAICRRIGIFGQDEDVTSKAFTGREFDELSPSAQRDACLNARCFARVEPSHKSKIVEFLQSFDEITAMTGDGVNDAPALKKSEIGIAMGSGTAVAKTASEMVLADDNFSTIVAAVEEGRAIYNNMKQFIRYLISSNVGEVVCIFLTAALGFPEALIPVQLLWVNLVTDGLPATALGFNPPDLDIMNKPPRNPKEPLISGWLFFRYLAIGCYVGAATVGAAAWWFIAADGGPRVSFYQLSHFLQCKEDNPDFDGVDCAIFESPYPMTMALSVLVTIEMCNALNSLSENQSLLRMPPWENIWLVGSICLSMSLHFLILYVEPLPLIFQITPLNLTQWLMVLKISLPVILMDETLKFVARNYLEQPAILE
Experimental: HL-1 cardiac cells (SCC065, Merck KGaA, Darmstadt, Germany) were cultivated in Claycomb's Medium (51800C, Merck KGaA, Darmstadt, Germany), supplemented with Glutamax, 10% fetal bovine serum, 0.9% Penicillin/Streptomycin and 0.1 mM Noradrenaline (Merck KGaA, Darmstadt, Germany) on fibronectin/gelatin (Merck KGaA, Darmstadt, Germany) coated culture bottles or plates two days before plating.
HL-1 cardiac cells (50000 per well) were cultivated for 24 h in black-walled, clear-bottom 96-well micro-plates (Corning, Amsterdam, The Netherlands) covered with fibronectin/gelatin (Merck KGaA, Darmstadt, Germany) in a humidified incubator at 37 °C and 5% CO2.
Changes in Ca^2+ concentration were measured on a multiwell plate reader TECAN Spark 20M using FLIPR 6 Calcium Assay Kit from Molecular Devices (Molecular Devices LLC, München, Germany) at 37 °C. The 1000 × stock solutions of the test compounds were prepared in DMSO. 100 µl solution of test compound in Tyrode's solution containing FLIPR Calcium 6 dye was incubated for 2 hours at 37°C and 5% COz in a humidified incubator. The time courses were recorded in each well. Fluorescence was evoked at 485 nm excitation wavelength and read out in a bottom-read mode at 525 nm. Data were recorded every 2 s, exposure - 20 flashes, excitation bandwidth - 10 nm, emission bandwidth - 15 nm. To initiate Ca^2+ influx, 25 µl of 50 mM caffeine solution in Tyrode's solution containing 2 mM CaCl2 was injected in each well (speed 100 µl/s) at 10 s time point, resulting in 10 mM final concentration in the well. The differences between the caffeine induced peak minus basal fluorescence, ΔFCaff, were taken for the analysis. The Tyrode's solution + 0.1 v/v% DMSO was used as a control. The dose response curves were calculated using the software package GraphPad Prism version 8.3.1. All data are presented as mean ± S.D. from 8 independent experiments. Y=Bottom + (Top-Bottom)/(1+10^((LogEC50-X)*HillSlope)) was used where HillSlope describes the steepness of the curve, Top and Bottom are plateaus in the units of the Y axis.
The SERCA2a activity of the compounds was confirmed in two orthogonal biochemical assays: caffeine-induced Ca^2+ release assay and nicotinamide adenine dinucleotide (NADH) assay on microsomal membrane vesicles from mouse heart ventricles (mouse SER) and HEK-293T cells (HEK-293 ER). The effect of caffeine-induced Ca^2+ release in HL-1 cells, immortalized mouse cardiomyocytes, treated with the cytosolic Ca^2+ indicator FLIPR Calcium 6 (Molecular Devices) was investigated.
When caffeine binds to the RyR channel, it interacts with specific amino acids of the protein, and this interaction causes conformational changes in the protein's structure [A. des Georges, O. B. Clarke, R. Zalk, Q. Yuan, K. J. Condon, R. A. Grassucci, W. A. Hendrickson, A. R. Marks, J. Frank, Structural Basis for Gating and Activation of RyR1. Cell 2016, 167, 145 - 157.e17]. This opens the RyR2 channel pore, enabling the mass release of calcium ions from the SER Ca^2+ store.

COc1ccc2c(c1)CN(Cc1ccc(C(=O)O)cc1)CCS2 [ARM210, reference compound]
Pe rating in words (low / medium / high; poor) [1]: high
Pe [1]: 6.8 10^-6 cm/s
SERCA2a HL-1 effect class (SERCA2a): +
effect in caffeine-induced Ca^2+ release assay, in words (SERCA2a): clear concentration-dependent effect

COc1ccc2c(c1)CN(C(=O)C(=O)O)CCS2 [Compound S36, reference compound]
Pe rating in words (low / medium / high; poor) [1]: poor permeability and low
Pe [1]: 1.0 10^-6 cm/s
SERCA2a HL-1 effect class (SERCA2a): -
effect in caffeine-induced Ca^2+ release assay, in words (SERCA2a): no concentration dependent effect

COc1ccc(OCCCNCCCCC2(O)CC2)cc1 [Compound 13b, 1-(4-((3-(4-methoxyphenoxy)propyl)amino)butyl)cyclopropan-1-ol]
Pe rating in words (low / medium / high; poor) [1]: high
Pe [1]: 4.0 10^-6 cm/s
SERCA2a HL-1 effect class (SERCA2a): ++
EC50 (SERCA2a): 8.6 µM

COc1ccc2c(c1)CN(CCCCC1(O)CC1)CCS2 [Compound 13d, 1-(4-(7-methoxy-2,3-dihydrobenzo[1,4-f]thiazepin-4(5H)-yl)butyl)cyclopropan-1-ol]
Pe rating in words (low / medium / high; poor) [1]: high
Pe [1]: 3.6 10^-6 cm/s
SERCA2a HL-1 effect class (SERCA2a): +
effect in caffeine-induced Ca^2+ release assay, in words (SERCA2a): least efficacious; also recorded: no saturation effect at concentrations up to 50 µM; also recorded: slight

COc1ccc(SCCCNCCCCC2(O)CC2)cc1 [Compound 13c, 1-(4-((3-((4-Methoxyphenyl)thio)propyl)amino)butyl)cyclopropan-1-ol]
Pe rating in words (low / medium / high; poor) [1]: high
Pe [1]: 6.9 10^-6 cm/s
SERCA2a HL-1 effect class (SERCA2a): ++
EC50 (SERCA2a): 7.6 µM

COc1ccc2c(c1)CN(CCCCNCCCCC1(O)CC1)CCS2 [Compound 13a, 1-(4-((4-(7-Methoxy-2,3-dihydrobenzo[1,4-f]-thiazepin-4(5H)-yl)butyl)amino)butyl)cyclopropan-1-ol]
Pe rating in words (low / medium / high; poor) [1]: poor permeability and low
Pe [1]: 0.8 10^-6 cm/s
SERCA2a HL-1 effect class (SERCA2a): +
effect in caffeine-induced Ca^2+ release assay, in words (SERCA2a): most potent
EC50 (SERCA2a): 2.2 µM

COc1ccc2c(c1)CN(CCCCN(CCCCC1(O)CC1)CCCCC1(O)CC1)CCS2 [Compound 14a, 1,1'-(((4-(7-Methoxy-2,3-dihydrobenzo[1,4-f]thiazepin-4(5H)-yl)butyl)azanediyl)bis(butane-4,1-diyl))bis(cyclopropan-1-ol)]
Pe rating in words (low / medium / high; poor) [1]: poor permeability and low
Pe [1]: 0.6 10^-6 cm/s
SERCA2a HL-1 effect class (SERCA2a): ++
EC50 (SERCA2a): 9.2 µM

COc1ccc(SCCCN(CCCCC2(O)CC2)CCCCC2(O)CC2)cc1 [Compound 14c, 1,1'-(((3-((4-Methoxyphenyl)thio)propyl)azanediyl)bis(butane-4,1-diyl))bis(cyclopropan-1-ol)]
Pe rating in words (low / medium / high; poor) [1]: high
Pe [1]: 3.6 10^-6 cm/s
SERCA2a HL-1 effect class (SERCA2a): +++
effect in caffeine-induced Ca^2+ release assay, in words (SERCA2a): most efficacious
EC50 (SERCA2a): 10.9 µM
